Test results: ChEMBL document CHEMBL4118132, “Novel 5-methyl-2-phenylphenanthridium derivatives as FtsZ-targeting antibacterial agents from structural simplification of natural product sanguinarine” (2018)
The source made the active and inactive calls. The calls are words filed in the database; no cut-off is given here.

What was measured:
Staphylococcus aureus [1] = assay: Potency index, ratio of ciprofloxacin MIC to test compound MIC for methicillin-resistant Staphylococcus aureus ATCC 43300; format: functional
Streptococcus pyogenes [2] = assay: Potency index, ratio of ciprofloxacin MIC to test compound MIC for penicillin-susceptible Streptococcus pyogenes; format: functional
Pseudomonas aeruginosa = assay: Antibacterial activity against penicillin-susceptible Pseudomonas aeruginosa ATCC 27853 after 24 hrs by broth microdilution method; format: functional; conditions: ATCC 27853, 24 h
Staphylococcus aureus [3] = assay: Potency index, ratio of oxacillin sodium MIC to test compound MIC for penicillin-resistant Staphylococcus aureus clinical isolate; format: functional
Staphylococcus aureus [4] = assay: Bactericidal activity against penicillin-susceptible Staphylococcus aureus ATCC 25923 assessed as bacterial levels at 32 ug/ml after 24 hrs by time-kill assay (reference value: 6.13 to 8.34 log10CFU/ml); format: functional
[5] = target: T1, Cell division protein FtsZ (Staphylococcus aureus) (UniProt P0A031); assay: Inhibition of FtsZ in penicillin-susceptible Staphylococcus aureus ATCC 25923 assessed as increase in length of bacteria at 0.125 ug/ml after 5 hrs by phase-contrast light microscopic method
T1 sequence (whole entry): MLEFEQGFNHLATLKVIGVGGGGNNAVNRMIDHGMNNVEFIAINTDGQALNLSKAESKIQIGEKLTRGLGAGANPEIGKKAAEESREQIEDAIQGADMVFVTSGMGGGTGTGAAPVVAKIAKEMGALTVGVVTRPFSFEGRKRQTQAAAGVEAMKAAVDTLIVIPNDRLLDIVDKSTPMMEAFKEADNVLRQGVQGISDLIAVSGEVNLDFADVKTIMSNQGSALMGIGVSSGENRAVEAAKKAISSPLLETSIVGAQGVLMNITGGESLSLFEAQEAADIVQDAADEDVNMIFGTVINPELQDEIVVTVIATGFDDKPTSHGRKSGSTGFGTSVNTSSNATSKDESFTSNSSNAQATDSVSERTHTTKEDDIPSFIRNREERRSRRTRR

Staphylococcus aureus [6] = assay: Potency index, ratio of ciprofloxacin MIC to test compound MIC for penicillin-resistant Staphylococcus aureus clinical isolate; format: functional
Bacillus subtilis [7] = assay: Potency index, ratio of ciprofloxacin MIC to test compound MIC for penicillin-susceptible Bacillus subtilis ATCC 9372; format: functional
Staphylococcus aureus [8] = assay: Antibacterial activity against methicillin-resistant Staphylococcus aureus ATCC 43300 after 24 hrs by broth microdilution method; format: functional; conditions: ATCC 43300, 24 h
Bacillus pumilus = assay: Potency index, ratio of ciprofloxacin MIC to test compound MIC for penicillin-susceptible penicillin-susceptible Bacillus pumilus ATCC 63202; format: functional
Staphylococcus aureus [9] = assay: Bactericidal activity against penicillin-susceptible Staphylococcus aureus ATCC 25923 assessed as bacterial levels at 8 ug/ml after 4 hrs by time-kill assay (reference value: 6.13 to 6.71 log10CFU/ml); format: functional
Staphylococcus aureus [10] = assay: Bactericidal activity against penicillin-susceptible Staphylococcus aureus ATCC 25923 assessed as bacterial levels at 16 ug/ml after 24 hrs by time-kill assay (reference value: 6.13 to 8.34 log10CFU/ml); format: functional
Streptococcus pyogenes [11] = assay: Antibacterial activity against penicillin-susceptible Streptococcus pyogenes after 24 hrs by broth microdilution method; format: functional
Bacillus subtilis [12] = assay: Potency index, ratio of oxacillin sodium MIC to test compound MIC for penicillin-susceptible Bacillus subtilis ATCC 9372; format: functional
Staphylococcus aureus [13] = assay: Bactericidal activity against penicillin-susceptible Staphylococcus aureus ATCC 25923 assessed as bacterial levels at 8 ug/ml after 12 hrs by time-kill assay (reference value: 6.13 to 8.01 log10CFU/ml); format: functional
[14] = target: T2, Cell division protein FtsZ (Bacillus subtilis) (UniProt A5Z1V5); assay: Inhibition of FtsZ in penicillin-susceptible Bacillus subtilis ATCC 9372 assessed as increase in length of bacteria at 0.125 ug/ml after 5 hrs by phase-contrast light microscopic method
T2 sequence (whole entry): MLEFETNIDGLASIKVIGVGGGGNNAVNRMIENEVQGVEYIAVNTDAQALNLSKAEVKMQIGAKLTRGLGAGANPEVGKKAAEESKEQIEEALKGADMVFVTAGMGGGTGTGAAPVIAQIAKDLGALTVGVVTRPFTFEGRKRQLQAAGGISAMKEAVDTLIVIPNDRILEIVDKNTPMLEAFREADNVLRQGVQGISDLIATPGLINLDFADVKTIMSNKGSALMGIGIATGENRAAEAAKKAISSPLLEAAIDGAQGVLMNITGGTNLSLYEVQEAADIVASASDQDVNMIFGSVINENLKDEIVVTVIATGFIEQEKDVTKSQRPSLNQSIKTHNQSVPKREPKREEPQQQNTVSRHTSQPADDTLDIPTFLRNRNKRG

Streptococcus pyogenes [15] = assay: Potency index, ratio of oxacillin sodium MIC to test compound MIC for penicillin-resistant Streptococcus pyogenes; format: functional
Staphylococcus aureus [16] = assay: Bactericidal activity against penicillin-susceptible Staphylococcus aureus ATCC 25923 assessed as bacterial levels at 16 ug/ml after 6 hrs by time-kill assay (reference value: 6.13 to 7.54 log10CFU/ml); format: functional
Staphylococcus aureus [17] = assay: Potency index, ratio of ciprofloxacin MIC to test compound MIC for penicillin-susceptible Staphylococcus aureus ATCC 25923; format: functional
Staphylococcus aureus [18] = assay: Bactericidal activity against penicillin-susceptible Staphylococcus aureus ATCC 25923 assessed as bacterial levels at 8 ug/ml after 2 hrs by time-kill assay (reference value: 6.13 to 6.17 log10CFU/ml); format: functional
Staphylococcus aureus [19] = assay: Bactericidal activity against penicillin-susceptible Staphylococcus aureus ATCC 25923 assessed as bacterial levels at 8 ug/ml after 24 hrs by time-kill assay (reference value: 6.13 to 8.34 log10CFU/ml); format: functional
Streptococcus pyogenes [20] = assay: Antibacterial activity against penicillin-resistant Streptococcus pyogenes after 24 hrs by broth microdilution method; format: functional
Bacillus subtilis [21] = assay: Antibacterial activity against penicillin-susceptible Bacillus subtilis ATCC 9372 after 24 hrs by broth microdilution method; format: functional; conditions: ATCC 9372, 24 h
Staphylococcus aureus [22] = assay: Bactericidal activity against penicillin-susceptible Staphylococcus aureus ATCC 25923 assessed as bacterial levels at 16 ug/ml after 1 hr by time-kill assay (reference value: 6.13 to 6.14 log10CFU/ml); format: functional
Staphylococcus aureus [23] = assay: Bactericidal activity against penicillin-susceptible Staphylococcus aureus ATCC 25923 assessed as bacterial levels at 32 ug/ml after 4 hrs by time-kill assay (reference value: 6.13 to 6.71 log10CFU/ml); format: functional
[24] = test system: Staphylococcus epidermidis; assay: Potency index, ratio of ciprofloxacin MIC to test compound MIC for penicillin-resistant Staphylococcus epidermidis clinical isolate; format: functional
Staphylococcus aureus [25] = assay: Bactericidal activity against penicillin-susceptible Staphylococcus aureus ATCC 25923 assessed as bacterial levels at 32 ug/ml after 1 hr by time-kill assay (reference value: 6.13 to 6.14 log10CFU/ml); format: functional
Staphylococcus aureus [26] = assay: Bactericidal activity against penicillin-susceptible Staphylococcus aureus ATCC 25923 assessed as bacterial levels at 8 ug/ml after 1 hr by time-kill assay (reference value: 6.13 to 6.14 log10CFU/ml); format: functional

Cc1cc(-c2ccc(C(F)(F)F)cc2)cc2c3ccccc3c[n+](C)c12.[Cl-] was tested, and the Ratio (Staphylococcus aureus [1]) was 64, the Ratio (Streptococcus pyogenes [2]) was 8 and the MIC (Pseudomonas aeruginosa) was greater than 64 µg/mL. For the same compound, the Ratio (Staphylococcus aureus [3]) was 256, the Activity (Staphylococcus aureus [4]) was 0 log10CFU/ml and the inhibition [5] was “Active”. For the same compound, the Ratio (Staphylococcus aureus [6]) was 64, the Ratio (Bacillus subtilis [7]) was 33 and the MIC (Staphylococcus aureus [8]) was 0.25 µg/mL. For the same compound, the Ratio (Bacillus pumilus) was 133, the Activity (Staphylococcus aureus [9]) was 6.04 log10CFU/ml and the Activity (Staphylococcus aureus [10]) was 0 log10CFU/ml. The MIC (Streptococcus pyogenes [11]) was 1 µg/mL, the Ratio (Bacillus subtilis [12]) was 67 and the Activity (Staphylococcus aureus [13]) was 5.78 log10CFU/ml. The inhibition [14] was “Active”, the Ratio (Streptococcus pyogenes [15]) was 32 and the Activity (Staphylococcus aureus [16]) was 5.42 log10CFU/ml. The Ratio (Staphylococcus aureus [17]) was 133, the Activity (Staphylococcus aureus [18]) was 6.06 log10CFU/ml and the Activity (Staphylococcus aureus [19]) was 5.88 log10CFU/ml. The MIC (Streptococcus pyogenes [20]) was 2 µg/mL, the MIC (Bacillus subtilis [21]) was 0.06 µg/mL and the Activity (Staphylococcus aureus [22]) was 5.89 log10CFU/ml. For the same compound, the Activity (Staphylococcus aureus [23]) was 4 log10CFU/ml, the Ratio [24] was 512 and the Activity (Staphylococcus aureus [25]) was 5.57 log10CFU/ml. For the same compound, the Activity (Staphylococcus aureus [26]) was 6.05 log10CFU/ml.
